For this experiment, the target named is T1, CgDM9CP-4 (rCgDM9CP-4) (Magallana gigas, UniProt A0A8W8N023).
T1 construct: full ORF, 145 residues, two tandem DM9 domains, predicted 16 kDa (~18 kDa on gel); pET-30a (NdeI/XhoI), His tag, E. coli Transetta (DE3), Ni column
Briefly: ELISA on mannose-coated plate, one-site fit. The experiment is classed as binding. As to conditions: apparent Kd; mannose coated at 20 μg in pH 9.6 buffer; 5 mmol L^-1 CaCl2, 0.1 mg mL^-1 BSA, 37°C; anti-His detection. In general terms: In an ELISA, binding on a coated surface is turned into a signal by an enzyme label.

This note sets out measurements from PMC7907646, “Identification of a Novel Pattern Recognition Receptor DM9 Domain Containing Protein 4 as a Marker for Pro-Hemocyte of Pacific Oyster Crassostrea gigas” (Frontiers in Immunology, 2021).

T1 sequence (A0A8W8N023 entry or part of it): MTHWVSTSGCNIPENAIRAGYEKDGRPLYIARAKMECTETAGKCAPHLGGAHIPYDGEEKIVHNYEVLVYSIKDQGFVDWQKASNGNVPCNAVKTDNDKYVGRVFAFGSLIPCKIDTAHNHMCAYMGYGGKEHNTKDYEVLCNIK

For `OC[C@H]1OC(O)[C@@H](O)[C@@H](O)[C@@H]1O` (stereo partly shown) [Mannose], the Kd was 90 nM.
